Measurements: the supplement of paper PMC10883282
± gives the standard deviation of the averaged measurements.

Key:
Assay in all cases: relative viability vs DMSO control (72 h) (fraction); higher = more viable cells
A204 = system: A204
In short: (§1)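 Plates held 72 h at 37 °C and 5% CO2 contained sarcoma cell lines seeded in 384-well format to reach 80–90% confluence, plus 2.5 µl of serially diluted compound added after 24 h. Source plate concentrations ran from 10 mM to 0.0002 mM, with 0.1% DMSO as vehicle and a 5 µM positive control. Percent growth from ATPLite readings, averaged over up to triplicate wells, gave relative viability. Values were rescaled with 1 as full and 0 as none.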

G401 = system: G401
In short: as §1

HS729 = system: HS729
In short: as §1

HT1080 = system: HT1080
In short: as §1

KHOS-NP = system: KHOS-NP
In short: as §1

MES-SA = system: MES-SA
In short: as §1

SK-LMS-1 = system: SK-LMS-1
In short: as §1

SW1353 = system: SW1353
In short: as §1

SW684 = system: SW684
In short: as §1

SW872 = system: SW872
In short: as §1

SYO-1 = system: SYO-1
In short: as §1

VA-ES-BJ = system: VA-ES-BJ
In short: as §1

COc1cc(CCc2cc(NC(=O)c3ccc(N4CC(C)NC(C)C4)cc3)n[nH]2)cc(OC)c1 (configuration not stated) [AZD-4547]
Details | relative viability
A204, 0.00017 µM | 1.04 ± 0.011
A204, 0.00051 µM | 1.06 ± 0.015
A204, 0.00152 µM | 1.04 ± 0.015
A204, 0.00457 µM | 1.02 ± 0.033
A204, 0.01372 µM | 1.02 ± 0.044
A204, 0.04115 µM | 0.841 ± 0.062
A204, 0.1235 µM | 0.714 ± 0.017
A204, 0.3704 µM | 0.625 ± 0.034
A204, 1.111 µM | 0.556 ± 0.05
A204, 3.333 µM | 0.463 ± 0.01
A204, 10 µM | 0.274 ± 0.011
G401, 0.00017 µM | 1 ± 0.053
G401, 0.00051 µM | 0.999 ± 0.042
G401, 0.00152 µM | 0.964 ± 0.06
G401, 0.00457 µM | 0.976 ± 0.016
G401, 0.01372 µM | 0.9 ± 0.052
G401, 0.04115 µM | 0.845 ± 0.047
G401, 0.1235 µM | 0.706 ± 0.033
G401, 0.3704 µM | 0.589 ± 0.0072
G401, 1.111 µM | 0.486 ± 0.061
G401, 3.333 µM | 0.356 ± 0.059
G401, 10 µM | 0.136 ± 0.013
HS729, 0.00017 µM | 1.02 ± 0.038
HS729, 0.00051 µM | 0.918 ± 0.023
HS729, 0.00152 µM | 0.914 ± 0.044
HS729, 0.00457 µM | 0.901 ± 0.048
HS729, 0.01372 µM | 0.827 ± 0.064
HS729, 0.04115 µM | 0.83 ± 0.033
HS729, 0.1235 µM | 0.65 ± 0.0079
HS729, 0.3704 µM | 0.627 ± 0.059
HS729, 1.111 µM | 0.57 ± 0.055
HS729, 3.333 µM | 0.473 ± 0.027
HS729, 10 µM | 0.265 ± 0.016
HT1080, 0.00017 µM | 1.085 ± 0.008
HT1080, 0.00051 µM | 1.1 ± 0.025
HT1080, 0.00152 µM | 1.08 ± 0.045
HT1080, 0.00457 µM | 1.07 ± 0.066
HT1080, 0.01372 µM | 1.06 ± 0.04
HT1080, 0.04115 µM | 1.01 ± 0.036
HT1080, 0.1235 µM | 1.04 ± 0.047
HT1080, 0.3704 µM | 1.08 ± 0.051
HT1080, 1.111 µM | 1.04 ± 0.044
HT1080, 3.333 µM | 1.04 ± 0.03
HT1080, 10 µM | 0.859 ± 0.026
KHOS-NP, 0.00017 µM | 1.079 ± 0.0041
KHOS-NP, 0.00051 µM | 1.1 ± 0.027
KHOS-NP, 0.00152 µM | 1.07 ± 0.011
KHOS-NP, 0.00457 µM | 1.08 ± 0.013
KHOS-NP, 0.01372 µM | 1.048 ± 0.0065
KHOS-NP, 0.04115 µM | 1.03 ± 0.035
KHOS-NP, 0.1235 µM | 1.03 ± 0.015
KHOS-NP, 0.3704 µM | 1.01 ± 0.013
KHOS-NP, 1.111 µM | 1.02 ± 0.015
KHOS-NP, 3.333 µM | 1 ± 0.037
KHOS-NP, 10 µM | 0.927 ± 0.013
MES-SA, 0.00017 µM | 0.886 ± 0.052
MES-SA, 0.00051 µM | 0.888 ± 0.042
MES-SA, 0.00152 µM | 0.92 ± 0.05
MES-SA, 0.00457 µM | 0.921 ± 0.015
MES-SA, 0.01372 µM | 0.894 ± 0.027
MES-SA, 0.04115 µM | 0.89 ± 0.045
MES-SA, 0.1235 µM | 0.789 ± 0.015
MES-SA, 0.3704 µM | 0.708 ± 0.012
MES-SA, 1.111 µM | 0.655 ± 0.017
MES-SA, 3.333 µM | 0.554 ± 0.02
MES-SA, 10 µM | 0.266 ± 0.01
SK-LMS-1, 0.00017 µM | 0.9811 ± 0.0063
SK-LMS-1, 0.00051 µM | 0.953 ± 0.04
SK-LMS-1, 0.00152 µM | 0.944 ± 0.013
SK-LMS-1, 0.00457 µM | 0.993 ± 0.042
SK-LMS-1, 0.01372 µM | 0.938 ± 0.044
SK-LMS-1, 0.04115 µM | 0.991 ± 0.017
SK-LMS-1, 0.1235 µM | 0.954 ± 0.021
SK-LMS-1, 0.3704 µM | 0.9652 ± 0.0074
SK-LMS-1, 1.111 µM | 0.986 ± 0.023
SK-LMS-1, 3.333 µM | 0.965 ± 0.046
SK-LMS-1, 10 µM | 0.645 ± 0.023
SW684, 0.00017 µM | 1.11 ± 0.047
SW684, 0.00051 µM | 1.1 ± 0.059
SW684, 0.00152 µM | 1.12 ± 0.019
SW684, 0.00457 µM | 1.14 ± 0.033
SW684, 0.01372 µM | 1.07 ± 0.019
SW684, 0.04115 µM | 1.07 ± 0.033
SW684, 0.1235 µM | 1.06 ± 0.043
SW684, 0.3704 µM | 1.06 ± 0.031
SW684, 1.111 µM | 1.08 ± 0.051
SW684, 3.333 µM | 1.08 ± 0.04
SW684, 10 µM | 0.999 ± 0.051
SW872, 0.00017 µM | 1.05 ± 0.033
SW872, 0.00051 µM | 1 ± 0.025
SW872, 0.00152 µM | 1 ± 0.038
SW872, 0.00457 µM | 0.991 ± 0.042
SW872, 0.01372 µM | 0.987 ± 0.041
SW872, 0.04115 µM | 0.976 ± 0.045
SW872, 0.1235 µM | 0.963 ± 0.023
SW872, 0.3704 µM | 0.954 ± 0.067
SW872, 1.111 µM | 0.926 ± 0.066
SW872, 3.333 µM | 0.725 ± 0.047
SW872, 10 µM | 0.465 ± 0.025
SW1353, 0.00017 µM | 1.06 ± 0.011
SW1353, 0.00051 µM | 1.03 ± 0.021
SW1353, 0.00152 µM | 1.03 ± 0.021
SW1353, 0.00457 µM | 0.981 ± 0.056
SW1353, 0.01372 µM | 0.938 ± 0.032
SW1353, 0.04115 µM | 0.886 ± 0.043
SW1353, 0.1235 µM | 0.893 ± 0.043
SW1353, 0.3704 µM | 0.849 ± 0.067
SW1353, 1.111 µM | 0.821 ± 0.026
SW1353, 3.333 µM | 0.829 ± 0.051
SW1353, 10 µM | 0.595 ± 0.027
SYO-1, 0.00017 µM | 0.945 ± 0.058
SYO-1, 0.00051 µM | 0.864 ± 0.034
SYO-1, 0.00152 µM | 0.836 ± 0.07
SYO-1, 0.00457 µM | 0.763 ± 0.069
SYO-1, 0.01372 µM | 0.672 ± 0.11
SYO-1, 0.04115 µM | 0.637 ± 0.11
SYO-1, 0.1235 µM | 0.588 ± 0.1
SYO-1, 0.3704 µM | 0.559 ± 0.087
SYO-1, 1.111 µM | 0.519 ± 0.07
SYO-1, 3.333 µM | 0.408 ± 0.037
SYO-1, 10 µM | 0.224 ± 0.03
VA-ES-BJ, 0.00017 µM | 1.05 ± 0.044
VA-ES-BJ, 0.00051 µM | 1.01 ± 0.03
VA-ES-BJ, 0.00152 µM | 1.03 ± 0.048
VA-ES-BJ, 0.00457 µM | 1.02 ± 0.013
VA-ES-BJ, 0.01372 µM | 1.01 ± 0.044
VA-ES-BJ, 0.04115 µM | 0.975 ± 0.028
VA-ES-BJ, 0.1235 µM | 0.983 ± 0.039
VA-ES-BJ, 0.3704 µM | 1.02 ± 0.036
VA-ES-BJ, 1.111 µM | 1.07 ± 0.069
VA-ES-BJ, 3.333 µM | 0.987 ± 0.017
VA-ES-BJ, 10 µM | 0.681 ± 0.032
